This is an account of results in US20060084064A1, “Endocan compositions and methods for the treatment of neoplasms” (priority 2003, published 2006).

The subject of assay [1] is endocan mRNA in HUVECs. Kind of assay: Endocan mRNA expression in serum-starved HUVECs (Northern blot). In kind it is cell-based, human. Particulars: for Inhibition of endocan induction by tumor cell-conditioned medium / Inhibition of endocan induction by VEGF: HUVECs preincubated 30 minutes with 5 μM BIM; for Inhibition of endocan induction by tumor cell-conditioned medium: 20 μM LY294002 or 50 μM PD98059 before 6 hour treatment, FIG. 3H; for Effect of growth factor addition on endocan mRNA: growth factor added to serum-starved HUVECs, FIGS. 3D-3F; for Effect of growth factor addition on endocan mRNA / Inhibition of endocan induction by VEGF: 3I; for Inhibition of endocan induction by VEGF: 20 μM LY294002, 50 μM PD98059 or 20 μM SU1498 before 6 hour treatment with 20 ng/ml VEGF, FIGS. 3G. Here is the method:
Human non-small lung cancer cells (NCI-H1437, ATCC (American Type Culture Collection) CRL-5872) and rat glioma cells (C6, ATCC CCL-107) were grown in DMEM (Life Technologies Inc., Gaithersburg, Md.) containing 10% FBS (Life Technologies Inc.). Human renal cell carcinoma cells (786-0, ATCC CRL-1932) were maintained in RPMI 1640 (Life Technologies Inc.) containing 10% FBS. HUVECs, human epidermal keratinocytes and human renal tubule epithelial cells were obtained from Clonetics (San Diego, Calif.) and grown in EGM-2-MV, KGM and REGM, respectively (Clonetics). All cells were maintained at 37° C. under 5% CO2 in humidified air. Endothelial cells were grown to 90% confluence, serum-starved overnight in EBM-2 medium containing 0.5% FBS and incubated in the absence or presence of tumor cell-conditioned medium or growth factors at the doses and for the times indicated. Unless otherwise stated, endothelial cells were incubated with 20 ng/ml VEGF for 6 hours. In inhibition studies, serum-starved endothelial cells were preincubated with 5 μM BIM, 20 μM LY294002, 50 μM PD98059, or 20 μM SU1498 for 30 minutes before a 6 hour treatment with tumor conditional medium or VEGF. For neutralization studies, tumor conditional medium or growth factors were preincubated with antibodies for 1 hour at 37° C. and the mixture was then added to serum-starved HUVECs.
Cultured cells and tissues were harvested for total RNA extraction, using the Trizol reagent (Life Technologies). Five μg total RNA from cells or 10 μg RNA from tissues were loaded on a 0.7% formaldehyde-containing agarose gel. The RNA was transferred to nylon membrane, covalently cross-linked by UV radiation, prehybridized for 6 hours, and hybridized for 18 hours at 42° C. with 10^6 cpm/ml [^32P] dCTP-labeled human endocan, mouse endocan, mouse vWF, or mouse VEGF cDNA probe.

The test system of assay [2] is Flt-1 in HUVECs. Particulars: VEGF added to HUVECs; Wang et al. 2000; cited from earlier work.
Assay [3] concerns the target Flk-1 kinase. Conditions: selective inhibitor of Flk-1 kinase, obtained from Calbiochem; cited from earlier work.

In the case of `COc1cccc(-c2cc(=O)c3ccccc3o2)c1N` [PD90985], the “Inhibition of endocan induction by tumor cell-conditioned medium” value in assay [1] is listed as “not”.
Consider VEGF, for which the “Effect of growth factor addition on endocan mRNA” value in assay [1] was “time and dose dependent increase”. Further, in assay [2], the “Cell surface expression of Flt-1” value is listed as “reduced” and the “Flt-1 mRNA” value was “increased”.
Take `CC(C)c1cc(/C=C(\C#N)C(=O)NCCCc2ccccc2)cc(C(C)C)c1O` [SU1498]: in assay [1], the “Inhibition of endocan induction by VEGF” value is given as “blocked”. Further, in assay [3], the IC50 is 700 nM.
On to `CN(C)CCCn1cc(C2=C(c3c[nH]c4ccccc34)C(=O)NC2=O)c2ccccc21` [BIM, Bisindolylmaleimide I], for which, in assay [1], the “Inhibition of endocan induction by VEGF” value is given as “completely inhibited” and the “Inhibition of endocan induction by tumor cell-conditioned medium” value was “completely inhibited”.

B1: placenta growth factor (PlGF): Recombinant human placenta growth factor purchased from R&D Systems (protein, UniProt P49763 19-221, looked up)
Placenta growth factor: LPAVPPQQWALSAGNGSSEVEVVPFQEVWGRSYCRALERLVDVVSEYPSEVEHMFSPSCVSLLRCTGCCGDENLHCVPVETANVTMQLLKIRSGDRPSYVELTFSQHVRCECRHSPGRQSPDMPGDFRADAPSFLPPRRSLPMLFRMEWGCALTGSQSAVWPSSPVPEEIPRMHPGRNGKKQQRKPLREKMKPERCGDAVPRR
As for B1, the “Effect of growth factor addition on endocan mRNA” value in assay [1] is reported as “did not alter”.

A word on the IC50: it is the concentration needed to halve the response being measured.
